{
  "source": "patent US4596806A",
  "about": "“7-piperidino-1,2,3,5-tetrahydroimidazo[2,1-b]-quinazolin-2-one having platelet aggregation inhibitory activity” (Daiichi Seiyaku Co., Ltd., priority 1983, dated 1986)",
  "key": {"[1]": {"test_system": "platelet aggregation due to addition of B16BL6 cells", "assay": "Test of Inhibition of Platelet Aggregation Caused by Cancer Cells (in vitro), B16BL6", "type": "cell-based, C57BL/6 mouse", "description": "Blood was taken from the abdominal vein of a 7-week-old C57BL/6 male mouse into a syringe containing 1/10 volume of a 3.13% aqueous solution of sodium citrate dihydrate as an anticoagulant. The thus prepared citrated blood sample was centrifuged at 230×g at room temperature for 7 minutes. The resulting supernatant fluid was used as PRP. The remainder was further centrifuged at 1,500×g at room temperature for 10 minutes, and the supernatant fluid was used as platelet-poor-plasma (PPP). Platelet count in PRP was adjusted to 450,000 per mm^3 by PPP. A 450 μl of PRP was placed in a reaction tube and subjected to centrifugation at 950 rpm at 30° C. About 1 minute later while continuing the centrifugation, 5 μl of a 200 mM calcium chloride aqueous solution was added to the system to a final concentration of […]. 30 seconds later, 5 μl of a saline solution of the compound (I) (dihydrochloride monohydrate) was added to the system, and additional 30 seconds later, 50 μl of a cell suspension containing 1×10^5 cells of B16 melamona BL6 (B16BL6) originated in a C57BL mouse or 50 μl of a cell suspension containing 1×10^6 cells of Lewis lung cancer (3LL) originated in a C57BL mouse was added thereto. Platelet aggregation of the sample system was determined from changes in transmittancy by use of an aggregometer. […]"}, "[2]": {"test_system": "platelet aggregation", "assay": "Test of Platelet Aggregation Inhibition (ex vivo; i.v.)", "parameters": "species or system rat (male Wistar-Imamichi)", "conditions": "Rattus norvegicus, iv, 0.25 h, 15 min, read-out: Platelet Aggregation Inhibitory Activity (in vivo: % inhibition); for inhibition at 0.02 mg/kg: i.v. 0.02 mg/Kg/min; for inhibition at 0.067 mg/kg: i.v. 0.067 mg/Kg/min", "description": "As test animals, 5 male Wistar-Imamichi rats (body weight: about 270 g) that had been allowed food and water ad libitum were used per group. The test compound was dissolved in a physiological saline solution (J.P.) and continuously injected to the rats under anesthesia with pentobarbital through the femoral vein. 15 minutes later, citrated blood was taken from the heart, and platelet aggregation was determined in the same manner as in Test Example 2."}},
  "note": "Read-outs that look alike come from different tables or passages of the source.",
  "data": [
    {"smiles": "O=C1CN2Cc3cc(N4CCCCC4)ccc3N=C2N1", "note": "[Compound (I), 7-piperidino-1,2,3,5-tetrahydroimidazo[2,1-b]quinazolin-2-one]", "values": [
      {"measurement": "inhibition of platelet aggregation due to addition of B16BL6 cells", "setting": "[1]; 0.3 μM", "result": "partially inhibited"},
      {"measurement": "inhibition of platelet aggregation due to addition of B16BL6 cells", "setting": "[1]; final concentration of 3 μM or more", "result": "completely inhibited"},
      {"measurement": "inhibition at 0.02 mg/kg", "setting": "[2]; inducer ADP", "result": 11, "unit": "%"},
      {"measurement": "inhibition at 0.02 mg/kg", "setting": "[2]; inducer collagen", "result": 86, "unit": "%"},
      {"measurement": "inhibition at 0.067 mg/kg", "setting": "[2]; inducer ADP", "result": 37, "unit": "%"},
      {"measurement": "inhibition at 0.067 mg/kg", "setting": "[2]; inducer collagen", "result": 100, "unit": "%"}
    ]}
  ]
}
